Test results taken from patent publication US20260356824A1, “COMPOUNDS FOR TREATING FIBROTIC DISEASES” (Meta-Immue Inc., priority 2023, published 2026).

Experiments:
[1] = Liver microsomal stability, human; assay type: in vitro ADME; conditions: human liver microsomes; 30 min; percent of parent remaining; read-out: Liver Microsomal stability (%), % of remaining after 30 min, Human
A2058 cells = assay: Chemotaxis Assay (LPA-induced migration of A2058 cells); assay type: cell-based; conditions: Homo sapiens, 4 to 8 hours, crystal violet 590 nm
In short: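 A2058 cells, starved 24 hr and treated with test compound or vehicle, were placed on a fibronectin-coated membrane ([…]) above […] in DMEM. After 4–8 h migration, migrated cells were crystal violet stained and read at 590 nm. Values are relative percentage of control.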

BSEP = molecular target: T1, BSEP (Homo sapiens, UniProt O95342); assay: Bile Salt Export Pump (BSEP) Assay, Sf9 insect cell vesicles expressing BSEP; assay type: in vitro ADME; conditions: 10 μM test compound, probe substrate 1 μM [3H]-taurocholic acid, 15 min incubation
T1 construct: ATP-dependent uptake of radiolabelled probe substrate
T1 sequence (O95342 whole entry): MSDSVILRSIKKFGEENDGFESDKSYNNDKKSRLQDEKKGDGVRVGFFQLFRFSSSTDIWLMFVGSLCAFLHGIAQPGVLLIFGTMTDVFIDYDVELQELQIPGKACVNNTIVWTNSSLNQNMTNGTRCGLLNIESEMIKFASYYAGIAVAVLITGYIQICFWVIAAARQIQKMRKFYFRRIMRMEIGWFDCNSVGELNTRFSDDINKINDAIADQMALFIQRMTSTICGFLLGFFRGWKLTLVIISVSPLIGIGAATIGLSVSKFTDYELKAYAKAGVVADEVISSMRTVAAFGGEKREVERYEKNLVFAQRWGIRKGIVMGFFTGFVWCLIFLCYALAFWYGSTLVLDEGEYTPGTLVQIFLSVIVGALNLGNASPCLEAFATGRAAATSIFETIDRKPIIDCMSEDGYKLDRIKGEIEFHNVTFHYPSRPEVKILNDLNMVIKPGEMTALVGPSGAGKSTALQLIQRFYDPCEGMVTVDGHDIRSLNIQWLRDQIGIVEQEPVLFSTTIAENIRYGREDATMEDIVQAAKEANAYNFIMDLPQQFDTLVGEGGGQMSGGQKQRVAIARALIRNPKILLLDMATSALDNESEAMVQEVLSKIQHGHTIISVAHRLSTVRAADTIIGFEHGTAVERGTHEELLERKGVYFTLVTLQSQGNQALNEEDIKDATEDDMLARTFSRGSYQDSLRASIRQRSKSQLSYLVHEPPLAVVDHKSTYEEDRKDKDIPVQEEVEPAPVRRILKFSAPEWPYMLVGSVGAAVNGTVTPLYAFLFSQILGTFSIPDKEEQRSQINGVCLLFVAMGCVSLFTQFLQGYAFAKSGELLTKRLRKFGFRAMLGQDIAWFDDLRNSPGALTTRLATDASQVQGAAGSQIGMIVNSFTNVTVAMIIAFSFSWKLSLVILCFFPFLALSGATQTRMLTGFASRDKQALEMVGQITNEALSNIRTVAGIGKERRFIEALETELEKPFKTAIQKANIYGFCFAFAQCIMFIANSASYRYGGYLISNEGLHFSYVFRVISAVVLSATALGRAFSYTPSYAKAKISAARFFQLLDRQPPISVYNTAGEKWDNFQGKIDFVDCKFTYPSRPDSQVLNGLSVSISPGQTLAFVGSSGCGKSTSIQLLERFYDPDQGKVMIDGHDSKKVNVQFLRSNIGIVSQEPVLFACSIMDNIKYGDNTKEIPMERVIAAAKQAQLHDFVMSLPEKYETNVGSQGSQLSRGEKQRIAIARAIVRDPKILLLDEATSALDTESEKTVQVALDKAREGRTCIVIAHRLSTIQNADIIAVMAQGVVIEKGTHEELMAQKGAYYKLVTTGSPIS
Description: • 1. A stock solution was prepared with the test article (Sponsor compound) in DMSO. • 2. All final assay solutions of probe substrate, reference inhibitor or test article contain 0.5% (v/v) DMSO (vehicle control). • 3. Test article concentrations in transport study were specified in the Summary Table of Experimental Conditions of this protocol.
• 1. Bovine Serum Albumin (BSA) • 2. Dimethyl sulfoxide (DMSO) • 3. BSEP Assay Uptake Buffer (10 mM HEPES-Tris pH 7.4, 0.1 M KNO3, 12.5 mM Mg(NO3)2, 50 mM sucrose) • 4. BSEP Wash Buffer (10 mM Tris-HCl pH 7.4, 0.1 M KNO3, 50 mM sucrose) • 5. BSEP Blocking Buffer (BSEP Wash Buffer+0.5 mg/mL BSA) • 6. 25 mM Mg-ATP solution • 7. 25 mM AMP solution • 8. Corning Costar 96-well flat-bottom, untreated, white Assay Plate (Corning Cat. No. 3912) • 9. Millipore MultiscreenHTs Filtration Plate, glass fiber FB—1.0/0.65 μm (Cat. No. MSFBN6B10 or glass fiber FC—1.2/0.65 μm (Cat. No. MSFCN6B10) • 10. Millipore MultiscreenHTS Vacuum Manifold (Cat. No. MSVMHTS00) • 11. Probe substrates listed in Table 1 • 12. Reference inhibitors listed in Table 1 • 13. Test articles
• 1. Test system: • a. 96-well flat bottom plate containing a suspension of vesicles and a corresponding 96-well glass fiber filtration plate. • b. Transport experiments were conducted in the Assay Uptake Buffer. • c. Transport experiment was initiated with the addition of Mg-ATP or AMP to appropriate wells. • d. Each condition was run in triplicate wells. • 2. Prepared the 96-well flat-bottom assay plate. • a. Incubated the assay plate with the Blocking Buffer for 60 min at 37 °C with orbital shaking at approximately 90 rpm. (NOTE: This is done to prevent non-specific binding of vesicles to polystyrene assay plate). • b. After 60 min, completely removed the Blocking Buffer from the assay plate. • c. The Assay Uptake Buffer solutions were added to the assay plate wells as follows: • i. For probe substrate transport assays, the Assay Uptake Buffer contained vesicles and the probe substrate at the specified concentration. • ii. For the reference inhibition assay, the Assay Uptake Buffer contained vesicles, the reference inhibitor and the probe substrate at the specified concentration in Table 1. • iii. For the test article assays, Assay Uptake Buffer contained vesicles, the test article and the probe substrate at the specified concentration in Table 1. • 3. Incubate at 37 °C with orbital shaking at approximately 90 rpm for the time period specified in Table 1 of this protocol. • 4. Using the 25 mM Mg-ATP or AMP stocks, Mg-ATP or AMP was added to test wells of flat bottom assay plate to a final concentration of 5 mM. • 5. Incubated at 37 °C with orbital shaking at approximately 90 rpm for the incubation time specified in Table 1 of this protocol. • 6. Prepared the 96-well glass fiber filtration plate: • a. Incubated the filtration plate with the Blocking Buffer for 2 min at room temperature with under no vacuum. • b. Turned on vacuum and allowed Blocking Buffer to filter through plate. • c. With vacuum on, filter plate was washed with ice cold Wash Buffer. • 7. At the end of the specified incubation time indicated in […] of this protocol, vesicle transport was quenched by adding ice cold Wash Buffer to samples in 96-well assay plate. • 8. Mixed assay samples (now diluted in Wash Buffer) with pipette and transfered 175 μL into the 96-well glass fiber filtration plate to separate vesicles from buffer by applying vacuum. • 9. Washed filter plate wells with ice cold Wash Buffer. • 10. Allowed filter plate to dry under vacuum. • 11. Transfered filters to scintillation sample plate and added 700 μL of scintillation fluid to the above samples. • 12. Counted the above samples on a 1450 Microbeta (Perkin-Elmer).
• 1. The amount of substrate was quantified with radiometric detection on a 1450 Microbeta (Perkin-Elmer). • 2. For transport study samples run in triplicate, the mean and standard deviation of the replicates were reported. • 3. […]

[2] = Liver microsomal stability, rat; assay type: in vitro ADME; conditions: rat liver microsomes; 30 min; percent of parent remaining; read-out: Liver Microsomal stability (%), % of remaining after 30 min, Rat
hLPAR1 = molecular target: T2, hLPAR1 (Homo sapiens, UniProt Q92633); assay: Ca2+ Flux Assay (B103 cells stably expressing hLPAR1); assay type: cell-based; conditions: LPA-induced calcium release, Fura-2 AM, compound 20 min at RT
T2 construct: expressed in transfected cells
T2 sequence (Q92633 whole entry): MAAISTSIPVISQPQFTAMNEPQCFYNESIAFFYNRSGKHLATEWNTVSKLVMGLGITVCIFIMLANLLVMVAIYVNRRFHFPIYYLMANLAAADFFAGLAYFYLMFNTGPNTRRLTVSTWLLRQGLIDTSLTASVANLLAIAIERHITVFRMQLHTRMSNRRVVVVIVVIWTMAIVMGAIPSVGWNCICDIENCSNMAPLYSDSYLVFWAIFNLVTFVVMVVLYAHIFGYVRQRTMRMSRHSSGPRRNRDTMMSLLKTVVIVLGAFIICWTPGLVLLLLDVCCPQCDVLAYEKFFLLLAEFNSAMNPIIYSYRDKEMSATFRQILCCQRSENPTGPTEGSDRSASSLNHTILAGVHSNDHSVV
In short: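 Fura-2 AM (5 μM) loaded 40 min at RT in HBSS/20 mM HEPES/probenecid/0.3% fatty-acid-free BSA after 2 h serum starvation. Compounds preincubated 20 min at RT, then LPA […] added. Intracellular calcium mobilization read as fluorescence intensity.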

| SMILES | remaining at 0.5 h [1] [%] | IC50 (A2058 cells) [nM] | inhibition at 0.25 h, 10 µM (BSEP) [%] | remaining at 0.5 h [2] [%] | IC50 (hLPAR1) [nM] |
| --- | --- | --- | --- | --- | --- |
| Cc1noc([C@H]2CCN(c3ccc(C4(C(=O)O)CC4)cc3)[C@@H](C)C2)c1NC(=O)O[C@H](C)c1ccccc1 (single isomer, unassigned) [Compound 10] | > 75 | < 100 | 25 to 50 | > 75 | 10 to 200 |
| Cn1nnc(C2CCN(c3ccc(C4(C(=O)O)CC4)cc3)CC2)c1Nc1cccc(-c2ccccc2)n1 [Compound 6] | > 75 | 500 to 5000 | – | > 75 | 10 to 200 |
| Cc1noc(N2CCC(c3ccc(C4(C(=O)O)CC4)cc3)CC2)c1NC(=O)O[C@H](C)c1ccccc1 [Compound 8, (R)-1-(4-(1-(3-methyl-4-(((1-phenylethoxy)carbonyl)amino)isoxazol-5-yl)piperidin-4-yl)phenyl)cyclopropane-1-carboxylic acid] | 50 to 75 | 100 to 500 | 50 to 75 | 50 to 75 | < 10 |
| Cc1noc(C2CCN(c3ccc(C4(c5cc(O)no5)CC4)cc3)CC2)c1NC(=O)O[C@H](C)c1ccccc1 [Compound 64] | 50 to 75 | < 100 | 75 to 100 | 25 to 50 | < 10 |
| Cc1noc(C2CCN(c3ccc(C4(C(=O)O)CC4)cc3)CC2)c1N[C@H](C)CCc1ccccc1 [Compound 22] | 50 to 75 | 100 to 500 | – | 50 to 75 | 10 to 200 |
| CCCN(C)C(=O)OCc1c(C)noc1C1CCN(c2ccc(C3(C(=O)NS(=O)(=O)C(F)(F)F)CC3)cc2)CC1 [Compound 13] | ≤ 25 | ≥ 5000 | – | 50 to 75 | ≥ 3000 |
| Cc1noc(C2CCN(c3ccc(C4(C(=O)NS(=O)(=O)C(C)(C)C(=O)O)CC4)cc3)CC2)c1NC(=O)O[C@H](C)c1ccccc1 [Compound 67, 2-methyl-2-[[1-[4-[4-[3-methyl-4-[[(1R)-1-phenylethoxy]carbonylamino]isoxazol-5-yl]-1-piperidyl]phenyl]cyclopropanecarbonyl]sulfamoyl]propanoic acid] | > 75 | < 100 | 25 to 50 | > 75 | < 10 |
| CNS(=O)(=O)NC(=O)C1(c2ccc(N3CCC(c4onc(C)c4NC(=O)O[C@H](C)c4ccccc4)CC3)cc2)CC1 [Compound 86] | > 75 | 100 to 500 | 50 to 75 | > 75 | < 10 |
| Cc1ccccc1[C@@H](C)OC(=O)Nc1c(C)noc1C1CCN(c2ccc(C3(C(=O)NS(N)(=O)=O)CC3)cc2)CC1 [Compound 35] | 25 to 50 | < 100 | – | 50 to 75 | < 10 |
| Cc1noc(C2CCN(c3ccc(C4(C(=O)NS(C)(=O)=O)CC4)cc3)CC2)c1NC(=O)O[C@H](C)c1ccccc1 [Compound 12] | > 75 | < 100 | 25 to 50 | 50 to 75 | 10 to 200 |
| Cc1noc(C2CCN(c3ccc(C4(C(=O)NS(=O)(=O)CCC(=O)O)CC4)cc3)CC2)c1NC(=O)O[C@H](C)c1ccccc1 [Compound 83] | > 75 | < 100 | ≤ 25 | > 75 | < 10 |
| Cc1noc(C2CN(c3ccc(C4(C(=O)O)CC4)cc3)C2)c1NC(=O)O[C@H](C)c1ccccc1 [Compound 23, (R)-1-(4-(3-(3-methyl-4-(((1-phenylethoxy)carbonyl)amino)isoxazol-5-yl)azetidin-1-yl)phenyl)cyclopropane-1-carboxylic acid] | > 75 | 500 to 5000 | 25 to 50 | > 75 | 10 to 200 |
| Cc1nsc(C2CCN(c3ccc(C4(C(=O)NS(=O)(=O)C(F)(F)F)CC4)cc3)CC2)c1NC(=O)O[C@H](C)c1ccccc1 [Compound 94] | 50 to 75 | < 100 | 75 to 100 | 50 to 75 | < 10 |
| Cc1noc(C2CCN(c3ccc(C4(C(=O)NS(=O)(=O)C(C)(C)CO)CC4)cc3)CC2)c1NC(=O)O[C@H](C)c1ccccc1 [Compound 70] | > 75 | < 100 | – | > 75 | < 10 |
| Cc1noc(C2CCN(c3ccc(C4(C(=O)NS(=O)(=O)CCCO)CC4)cc3)CC2)c1NC(=O)O[C@H](C)c1ccccc1 [Compound 85] | > 75 | < 100 | ≤ 25 | 50 to 75 | < 10 |
| C[C@@H](OC(=O)Nc1c(C2CCN(c3ccc(C4(C(=O)NS(=O)(=O)CCC(=O)O)CC4)cc3)CC2)nnn1C)c1ccccc1 [Compound 17] | – | 500 to 5000 | ≤ 25 | – | < 10 |
| Cc1noc(C2CCN(c3ccc(C4(C(=O)O)CC4)nc3)CC2)c1NC(=O)O[C@H](C)c1ccccc1 [Compound 90] | – | 100 to 500 | 25 to 50 | – | 10 to 200 |
| Cc1noc(C2CCN(c3ccc(C4(C(=O)O)CC4)cc3)CC2)c1CNC(=O)O[C@@H](C)c1ccccc1 [Compound 25] | > 75 | ≥ 5000 | – | > 75 | 10 to 200 |
| Cc1noc(C2CCN(c3ccc(C4(C(=O)NS(=O)(=O)C(C)C(=O)O)CC4)cc3)CC2)c1NC(=O)O[C@H](C)c1ccccc1 (stereo partly drawn) [Compound 71] | – | < 100 | 25 to 50 | – | < 10 |
| Cc1noc(C2CC3(C2)CN(c2ccc(C4(C(=O)O)CC4)cc2)C3)c1NC(=O)O[C@H](C)c1ccccc1 [Compound 54, 1-(4-{6-[3-methyl-4-({[(1R)-1-phenylethoxy]carbonyl}amino)-1,2-oxazol-5-yl]-2-azaspiro[3.3]heptan-2-yl}phenyl)cyclopropane-1-carboxylic acid] | – | < 100 | 25 to 50 | – | 10 to 200 |
| CNC(=O)C1(c2ccc(N3CCC(c4onc(C)c4NC(=O)O[C@H](C)c4ccccc4)CC3)cc2)CC1 [Compound 65] | – | 100 to 500 | 50 to 75 | – | 10 to 200 |
| Cc1noc([C@@H]2CCN(c3ccc(C4(C(=O)O)CC4)cc3)[C@H](C)C2)c1NC(=O)O[C@H](C)c1ccccc1 (single isomer, unassigned) [Compound 21] | > 75 | < 100 | – | > 75 | 10 to 200 |
